Reference: the supplement of paper PMC11451515

Tested on: P12-Ichikawa
Experiment: cell viability relative to DMSO control; higher = less cytotoxic
Settings: 48 h
Outline: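 Viability is expressed as a percentage of DMSO wells within each plate, and cell-free wells serve as background. Seeding densities in the 1536-well plates (5 μl) were 500 cells/well for NOMO1 or SEM leukemia cells and 1000 cells/well for P12-Ichikawa. Each line was adapted for at least four passages in each medium. Library compounds in DMSO were pin-dosed at 47 μM to 0.79 nM (11 points, threefold), and CellTiter-Glo One luminescence was read after 48 h at 37°C.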

[1] = HPLM + 10% dialyzed FBS, 0.000781 µM
[2] = HPLM + 10% dialyzed FBS, 0.00234 µM
[3] = HPLM + 10% dialyzed FBS, 0.00702 µM
[4] = HPLM + 10% dialyzed FBS, 0.0211 µM
[5] = HPLM + 10% dialyzed FBS, 0.0632 µM
[6] = HPLM + 10% dialyzed FBS, 0.19 µM
[7] = HPLM + 10% dialyzed FBS, 0.569 µM
[8] = HPLM + 10% dialyzed FBS, 1.71 µM
[9] = HPLM + 10% dialyzed FBS, 5.12 µM
[10] = HPLM + 10% dialyzed FBS, 15.4 µM
[11] = HPLM + 10% dialyzed FBS, 46.1 µM
[12] = RPMI 5 mM glucose + 10% FBS, 0.000781 µM
[13] = RPMI 5 mM glucose + 10% FBS, 0.00234 µM
[14] = RPMI 5 mM glucose + 10% FBS, 0.00702 µM
[15] = RPMI 5 mM glucose + 10% FBS, 0.0211 µM
[16] = RPMI 5 mM glucose + 10% FBS, 0.0632 µM
[17] = RPMI 5 mM glucose + 10% FBS, 0.19 µM
[18] = RPMI 5 mM glucose + 10% FBS, 0.569 µM
[19] = RPMI 5 mM glucose + 10% FBS, 1.71 µM
[20] = RPMI 5 mM glucose + 10% FBS, 5.12 µM
[21] = RPMI 5 mM glucose + 10% FBS, 15.4 µM
[22] = RPMI 5 mM glucose + 10% FBS, 46.1 µM
[23] = RPMI 5 mM glucose + 10% dialyzed FBS, 0.000781 µM
[24] = RPMI 5 mM glucose + 10% dialyzed FBS, 0.00234 µM
[25] = RPMI 5 mM glucose + 10% dialyzed FBS, 0.00702 µM
[26] = RPMI 5 mM glucose + 10% dialyzed FBS, 0.0211 µM
[27] = RPMI 5 mM glucose + 10% dialyzed FBS, 0.0632 µM
[28] = RPMI 5 mM glucose + 10% dialyzed FBS, 0.19 µM
[29] = RPMI 5 mM glucose + 10% dialyzed FBS, 0.569 µM
[30] = RPMI 5 mM glucose + 10% dialyzed FBS, 1.71 µM
[31] = RPMI 5 mM glucose + 10% dialyzed FBS, 5.12 µM
[32] = RPMI 5 mM glucose + 10% dialyzed FBS, 15.4 µM
[33] = RPMI 5 mM glucose + 10% dialyzed FBS, 46.1 µM

Row | SMILES | cell viability [1] | cell viability [2] | cell viability [3] | cell viability [4] | cell viability [5] | cell viability [6] | cell viability [7] | cell viability [8] | cell viability [9] | cell viability [10] | cell viability [11] | cell viability [12] | cell viability [13] | cell viability [14] | cell viability [15] | cell viability [16] | cell viability [17] | cell viability [18] | cell viability [19] | cell viability [20] | cell viability [21] | cell viability [22] | cell viability [23] | cell viability [24] | cell viability [25] | cell viability [26] | cell viability [27] | cell viability [28] | cell viability [29] | cell viability [30] | cell viability [31] | cell viability [32] | cell viability [33]
1 | O=C(C1CC1)N1CC[C@@H](Cn2c(-c3ccc(-c4ccc5occc5c4)cc3)nc3cnccc32)C1 | 101% | 117% | 108% | 114% | 117% | 126% | 122% | 127% | 124% | 119% | 111% | 92.7% | 117% | 120% | 121% | 131% | 119% | 124% | 132% | 111% | 124% | 83.5% | 106% | 112% | 102% | 120% | 116% | 128% | 121% | 128% | 123% | 119% | 93%
2 | CCc1cccc2c3c([nH]c12)C(CC)(CC(=O)O)OCC3 (stereo not given) | 108% | 107% | 110% | 109% | 104% | 105% | 105% | 108% | 99.4% | 99.2% | 93.7% | 104% | 107% | 106% | 103% | 101% | 99.9% | 100% | 93.1% | 96.4% | 96.6% | 85.7% | 94.4% | 98% | 99.9% | 103% | 102% | 101% | 98.9% | 98.1% | 92.9% | 94.1% | 84.8%
3 | CO[C@@H]1[C@@H](OC(N)=O)[C@@H](O)[C@H](OC2=CC=C3\C(=C(NC(=O)C4=CC=C([O-])C(=C4)CC=C(C)C)/C(=O)OC3=C2C)O)OC1(C)C | 118% | 108% | 119% | 115% | 111% | 106% | 110% | 104% | 102% | 100% | 100% | 107% | 108% | 124% | 110% | 114% | 110% | 113% | 110% | 108% | 94.2% | 97.8% | 109% | 105% | 109% | 110% | 105% | 106% | 108% | 109% | 98% | 98.5% | 88.3%
4 | CN(C)/[N+]([O-])=N/Oc1cc(ON[N+](=O)N2CCN(C(=O)c3cc(Cc4n[nH]c(=O)c5ccccc45)ccc3F)CC2)c([N+](=O)[O-])cc1[N+](=O)[O-] | 102% | 105% | 111% | 112% | 120% | 109% | 106% | 106% | 105% | 106% | 99.4% | 106% | 117% | 116% | 120% | 117% | 121% | 120% | 130% | 108% | 114% | 119% | 97% | 96.2% | 115% | 101% | 109% | 108% | 120% | 111% | 100% | 106% | 103%
5 | O=[N+]([O-])c1ccc(Nc2ccccc2-c2ccccc2)c2nonc12 | 85.2% | 90.1% | 92.4% | 91.2% | 85.1% | 90.4% | 94.2% | 96.7% | 90.6% | 91% | 89.4% | 83.6% | 91.2% | 86.4% | 91.1% | 90.6% | 88% | 93.4% | 95.4% | 90.7% | 96.2% | 86.5% | 89.6% | 87.1% | 84.8% | 92.3% | 93.8% | 97.6% | 94.1% | 90.7% | 88.7% | 95.2% | 84.9%
6 | C=CC(=O)Nc1cccc(Oc2nc(Nc3ccc(N4CCN(C)CC4)cc3OC)ncc2Cl)c1 | 75% | 79.3% | 78.4% | 84.9% | 84.7% | 86.3% | 83% | 79.6% | 76.5% | 70.6% | 52.2% | 68% | 76% | 76.1% | 79.5% | 80.9% | 83.7% | 80.1% | 82.1% | 66% | 58.3% | 50.3% | 73% | 89.4% | 82.8% | 79.9% | 81.6% | 80.9% | 74.6% | 83.3% | 70.6% | 64.7% | 49.5%
7 | C[C@H]1[C@H](O)O[C@@H]2O[C@@]3(C)CC[C@H]4[C@H](C)CC[C@@H]1[C@@]24OO3 | 91.4% | 95% | 99.8% | 98.6% | 91.4% | 97.9% | 101% | 87.6% | 54.7% | 29.4% | 22.5% | 90.1% | 92.9% | 83.4% | 94% | 89.9% | 91.2% | 87.9% | 70.4% | 33.9% | 16.8% | 14.6% | 82.7% | 90.6% | 87.1% | 87.7% | 87.2% | 87% | 84% | 61.6% | 36.5% | 26.2% | 24.3%
8 | O=C(C[C@@H]1C/C=C\CCC(=O)O[C@H](c2ccccc2)CNC1=O)NCc1ccc(Cl)cc1 | 99.1% | 110% | 79.7% | 117% | 126% | 122% | 116% | 119% | 123% | 116% | 117% | 95.1% | 117% | 70% | 112% | 115% | 118% | 128% | 128% | 115% | 119% | 123% | 102% | 115% | 79.3% | 120% | 120% | 120% | 123% | 119% | 114% | 120% | 113%
9 | O=[S+]([O-])(CCSSCC[S+](=O)([O-])[O][Na])[O][Na] | 105% | 110% | 114% | 124% | 121% | 124% | 129% | 120% | 126% | 123% | 129% | 97.4% | 111% | 107% | 111% | 121% | 116% | 133% | 132% | 124% | 119% | 118% | 108% | 133% | 119% | 127% | 134% | 127% | 134% | 126% | 130% | 139% | 133%
10 | COC1=CC(=CC=C1)C2=CC=C(NC(=O)/C3=C(/CCC3)C(O)=O)C(=C2)F | 111% | 113% | 116% | 110% | 110% | 113% | 113% | 106% | 100% | 80.1% | 57.6% | 116% | 116% | 118% | 113% | 109% | 111% | 105% | 105% | 96.6% | 79.6% | 51.7% | 109% | 120% | 114% | 105% | 110% | 110% | 113% | 106% | 92.2% | 69.6% | 37.4%
11 | C[C@]12CC[C@@H]3c4ccc(O)cc4CC[C@H]3[C@@H]1CC[C@@H]2O | 116% | 111% | 113% | 106% | 112% | 116% | 105% | 102% | 100% | 88.9% | 27.1% | 118% | 112% | 115% | 115% | 105% | 111% | 112% | 108% | 107% | 105% | 20.9% | 108% | 111% | 109% | 101% | 103% | 102% | 102% | 94.3% | 94.1% | 75.5% | 28.6%
12 | CCc1ccc(C(=O)Nc2cc(CN3CCN(C)CC3)cc(C(F)(F)F)c2)cc1C#Cc1cnc2ccnn2c1 | 126% | 118% | 114% | 121% | 120% | 124% | 118% | 117% | 112% | 102% | 88.2% | 119% | 122% | 134% | 113% | 124% | 116% | 113% | 123% | 106% | 102% | 87.3% | 130% | 118% | 121% | 113% | 111% | 119% | 107% | 108% | 104% | 99.1% | 83.8%
13 | O=[S+]([O-])(O)c1ccc2cc(/N=N/c3cc([S+](=O)([O-])O)c4cccnc4c3O)ccc2c1 | 123% | 123% | 125% | 110% | 126% | 120% | 124% | 111% | 108% | 113% | 58.8% | 131% | 124% | 121% | 109% | 126% | 112% | 115% | 111% | 113% | 113% | 59.2% | 135% | 125% | 114% | 110% | 114% | 122% | 117% | 114% | 113% | 101% | 56.4%
14 | Nc1nc(Nc2ccc([S+](N)(=O)[O-])cc2)nn1C(=O)c1c(F)cccc1F | 104% | 109% | 103% | 106% | 112% | 110% | 106% | 112% | 90.7% | 101% | 21.5% | 107% | 106% | 110% | 113% | 104% | 105% | 111% | 101% | 83.7% | 81.7% | 23.1% | 111% | 106% | 105% | 107% | 114% | 115% | 109% | 108% | 84.9% | 86.6% | 24.3%
15 | O=P1(N(CCCl)CCCl)NCCCO1 (stereo not given) | 112% | 113% | 115% | 113% | 106% | 109% | 101% | 106% | 98.1% | 16.5% | 6.1% | 112% | 113% | 109% | 113% | 108% | 113% | 112% | 102% | 101% | 51.8% | 8.07% | 115% | 109% | 106% | 102% | 107% | 117% | 108% | 101% | 101% | 90% | 17.3%
